ChEMBL document CHEMBL1201862, “PubChem BioAssay data set” (2004)
Active and inactive are the calls of the source.

Key:
[1] = Luminescence Cell-Based Dose Retest to Confirm Inhibitors of Cancer Stem Cells. [Related pubchem assays (depositor defined):AID2717, AID2721]; assay type: functional, Homo sapiens; conditions: Homo sapiens
Caspase-3 = target: T1, Caspase-3 (Homo sapiens, UniProt P42574); experiment: activation of caspase-3 zymogen – biochemical, absorbance, dose response (AID 489014)
T1 sequence (P42574 whole entry): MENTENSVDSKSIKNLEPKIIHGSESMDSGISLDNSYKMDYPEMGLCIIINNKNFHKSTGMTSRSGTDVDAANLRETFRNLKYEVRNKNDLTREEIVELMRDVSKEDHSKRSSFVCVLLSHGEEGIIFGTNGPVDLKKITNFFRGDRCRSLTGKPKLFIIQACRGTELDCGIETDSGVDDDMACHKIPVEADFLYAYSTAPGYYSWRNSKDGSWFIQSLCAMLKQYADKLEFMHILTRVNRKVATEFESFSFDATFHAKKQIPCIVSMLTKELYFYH

Caspase-7 = Caspase-7 (Homo sapiens, UniProt P55210); experiment: activation of caspase-7 zymogen – biochemical, absorbance, counter-screen for procaspase-3 activator project, dose response (AID 489013)
ORF 73 = target: T2, ORF 73 (Human herpesvirus 8, UniProt O40947); experiment: KSHV LANA DNA-binding disruption – biochemical, fluorescence polarization, cherry-picked samples, dose response (AID 504725); set-up: species or system Human gammaherpesvirus 8;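 also: fluorescence polarization of a labeled DNA duplex reporting LANA DNA binding; potency is for inhibitors that block LANA binding to the DNA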
T2 sequence (O40947 whole entry): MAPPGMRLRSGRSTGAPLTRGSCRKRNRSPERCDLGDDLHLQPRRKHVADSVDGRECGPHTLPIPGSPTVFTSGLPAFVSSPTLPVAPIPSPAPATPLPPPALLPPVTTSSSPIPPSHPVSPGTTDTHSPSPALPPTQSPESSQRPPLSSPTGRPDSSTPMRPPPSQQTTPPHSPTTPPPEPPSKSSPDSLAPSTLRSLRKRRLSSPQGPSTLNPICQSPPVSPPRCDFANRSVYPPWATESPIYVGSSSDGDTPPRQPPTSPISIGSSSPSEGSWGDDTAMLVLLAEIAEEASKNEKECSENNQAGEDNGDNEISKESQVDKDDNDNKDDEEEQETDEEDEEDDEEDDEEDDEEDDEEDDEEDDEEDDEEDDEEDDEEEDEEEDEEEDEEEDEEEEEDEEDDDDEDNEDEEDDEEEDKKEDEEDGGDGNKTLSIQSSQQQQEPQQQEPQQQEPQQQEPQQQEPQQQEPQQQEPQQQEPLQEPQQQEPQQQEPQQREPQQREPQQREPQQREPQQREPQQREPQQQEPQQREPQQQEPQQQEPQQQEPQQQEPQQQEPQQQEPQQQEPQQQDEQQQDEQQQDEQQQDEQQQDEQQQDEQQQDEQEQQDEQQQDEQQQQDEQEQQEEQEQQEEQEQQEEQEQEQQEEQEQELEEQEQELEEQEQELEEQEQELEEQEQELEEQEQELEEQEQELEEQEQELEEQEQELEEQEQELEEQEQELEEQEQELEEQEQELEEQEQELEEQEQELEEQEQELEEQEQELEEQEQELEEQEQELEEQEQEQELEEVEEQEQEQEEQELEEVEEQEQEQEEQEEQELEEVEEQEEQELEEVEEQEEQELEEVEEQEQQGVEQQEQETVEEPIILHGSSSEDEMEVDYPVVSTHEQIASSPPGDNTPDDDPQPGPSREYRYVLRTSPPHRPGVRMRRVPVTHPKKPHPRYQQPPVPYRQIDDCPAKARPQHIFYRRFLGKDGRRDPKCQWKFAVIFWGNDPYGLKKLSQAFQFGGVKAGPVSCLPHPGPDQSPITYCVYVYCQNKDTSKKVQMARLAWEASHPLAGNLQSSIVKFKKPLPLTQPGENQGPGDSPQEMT

[2] = target: T3, Rac GTPase-activating protein 1 (Homo sapiens, UniProt Q9H0H5); experiment: blockers of MgcRacGAP-driven Rac1 GTP hydrolysis – biochemical, ADP Hunter fluorescence, primary and confirmatory, confirmation (AID 624330); assay type: functional
T3 sequence (Q9H0H5 whole entry): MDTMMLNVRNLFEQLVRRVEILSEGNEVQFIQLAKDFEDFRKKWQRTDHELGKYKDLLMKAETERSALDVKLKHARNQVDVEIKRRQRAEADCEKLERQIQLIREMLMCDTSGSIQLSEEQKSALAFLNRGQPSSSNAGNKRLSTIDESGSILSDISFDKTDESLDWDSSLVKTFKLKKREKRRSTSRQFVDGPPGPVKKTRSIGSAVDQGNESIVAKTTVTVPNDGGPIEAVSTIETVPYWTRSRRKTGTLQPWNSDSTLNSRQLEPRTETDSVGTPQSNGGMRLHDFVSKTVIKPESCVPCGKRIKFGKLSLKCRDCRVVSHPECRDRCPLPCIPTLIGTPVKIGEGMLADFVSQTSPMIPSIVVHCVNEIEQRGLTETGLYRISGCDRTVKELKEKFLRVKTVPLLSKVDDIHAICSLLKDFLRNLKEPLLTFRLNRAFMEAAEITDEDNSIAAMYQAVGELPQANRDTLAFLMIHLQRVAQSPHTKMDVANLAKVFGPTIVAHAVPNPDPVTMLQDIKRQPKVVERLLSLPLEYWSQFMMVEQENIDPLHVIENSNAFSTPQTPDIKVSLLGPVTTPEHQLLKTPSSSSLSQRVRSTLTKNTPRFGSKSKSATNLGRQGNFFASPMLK

[3] = Luminescence-based cell-based high throughput dose response assay to identify activators of the DAF-12 from the parasite S. stercoralis (ssDAF-12).; assay type: functional
[4] = target: T4, Oxysterols receptor LXR-beta (Homo sapiens, UniProt P55055); experiment: LXR agonists, Gal4 luciferase reporter, dose response, counter-screen for ssDAF-12 agonist project, cell-based, luminescence, HEK293, S. stercoralis campaign (AID 720737); assay type: functional; conditions: read-out: IC50 (the source's name)
T4 sequence (P55055 whole entry): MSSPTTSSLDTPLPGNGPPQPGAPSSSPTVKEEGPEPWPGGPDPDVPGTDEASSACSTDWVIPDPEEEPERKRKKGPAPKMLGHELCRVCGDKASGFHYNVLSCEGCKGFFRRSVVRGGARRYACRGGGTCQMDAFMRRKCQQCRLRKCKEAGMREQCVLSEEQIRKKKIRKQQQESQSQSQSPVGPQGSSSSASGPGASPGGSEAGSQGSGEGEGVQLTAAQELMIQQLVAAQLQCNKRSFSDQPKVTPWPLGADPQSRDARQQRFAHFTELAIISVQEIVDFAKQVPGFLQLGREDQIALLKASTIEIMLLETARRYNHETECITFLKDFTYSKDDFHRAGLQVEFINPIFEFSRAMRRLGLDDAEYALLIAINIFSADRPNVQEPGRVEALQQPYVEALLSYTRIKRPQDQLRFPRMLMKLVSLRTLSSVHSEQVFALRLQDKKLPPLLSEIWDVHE

HeLa = experiment: viability loss in HeLa cells – cell-based, 24 h, cherry-picked samples, cytotoxicity control, dose response (AID 504726); assay type: functional; conditions: Homo sapiens;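 also: potency for cytotoxicity as loss of luminescence signal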
[5] = protection from phage-mediated lysis, alamar blue read-out – E. coli UTI89, K1F phage, bacterial capsule biogenesis inhibitors (AID 488966); assay type: functional
[6] = viability loss in HeLa cells – cytotoxicity control for MgcRacGAP inhibitor project, dose response (AID 624300); assay type: functional
[7] = target: T5, Neuropeptides B/W receptor type 1 (Homo sapiens, UniProt P48145); experiment: human NPBW1 receptor blockade, IC50 – cell-based, fluorescence, dose response, late-stage follow-up (AID 463251); assay type: functional
T5 sequence (P48145 whole entry): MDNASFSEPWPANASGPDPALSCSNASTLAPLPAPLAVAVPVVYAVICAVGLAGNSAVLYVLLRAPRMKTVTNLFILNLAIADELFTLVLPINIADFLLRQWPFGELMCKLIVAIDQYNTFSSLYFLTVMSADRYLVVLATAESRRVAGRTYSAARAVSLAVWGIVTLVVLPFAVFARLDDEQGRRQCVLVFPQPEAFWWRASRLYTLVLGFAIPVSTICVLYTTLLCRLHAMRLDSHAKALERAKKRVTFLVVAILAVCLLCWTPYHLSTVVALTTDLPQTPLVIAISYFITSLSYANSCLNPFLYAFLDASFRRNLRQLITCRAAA

[8] = target: Melanin-concentrating hormone receptor 1 (Homo sapiens, UniProt Q99705); experiment: Late-stage fluorescence-based counterscreen for antagonists of the G-protein coupled receptor 7 (GPR7): cell-based dose response assay to identify antagonists of the melanin-concentrating hormone receptor 1 (MCHR1). [Related pubchem assays (depositor defined):AID1861, AID1880, AID1952, AID2148, AID2251, AID2257, AID485339]; assay type: functional;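 also: stimulated with 30 nM MCH peptide agonist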
[9] = target: Glutathione S-transferase omega-1 (Homo sapiens, UniProt P78417); experiment: IC50 of human GSTO1 blockade by gel ABPP – biochemical, SE-Rh probe, in-gel fluorescence, powder samples, set 2, late-stage follow-up (AID 463142); assay type: functional
Phosphomannomutase 2 = Phosphomannomutase 2 (Homo sapiens, UniProt O15305); experiment: Counter screen SAR assay for PMM2 inhibitors via a fluorescence intensity assay. [Related pubchem assays (depositor defined):AID1545, AID1574]
[10] = target: T6, Mannose-6-phosphate isomerase (Homo sapiens, UniProt P34949); experiment: phosphomannose isomerase inhibition – biochemical, fluorescence intensity, confirmation (AID 1535)
T6 sequence (P34949 whole entry): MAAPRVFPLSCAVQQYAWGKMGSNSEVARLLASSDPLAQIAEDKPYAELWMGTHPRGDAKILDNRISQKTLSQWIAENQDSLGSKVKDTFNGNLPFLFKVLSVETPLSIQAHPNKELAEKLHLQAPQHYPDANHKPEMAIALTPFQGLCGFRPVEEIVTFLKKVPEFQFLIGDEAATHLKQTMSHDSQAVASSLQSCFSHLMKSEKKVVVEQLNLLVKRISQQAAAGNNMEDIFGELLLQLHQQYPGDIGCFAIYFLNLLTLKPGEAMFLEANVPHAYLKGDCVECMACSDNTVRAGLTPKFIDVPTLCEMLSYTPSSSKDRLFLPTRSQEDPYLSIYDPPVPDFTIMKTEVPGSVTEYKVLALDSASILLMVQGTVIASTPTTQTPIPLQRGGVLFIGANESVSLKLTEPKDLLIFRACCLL

[11] = target: Phosphoethanolamine/phosphocholine phosphatase (Homo sapiens, UniProt Q8TCT1); experiment: SAR assay for compounds that inhibit PHOSPHO1. [Related pubchem assays (depositor defined):AID1545, AID1565, AID1574]
Trypsin = Trypsin (Sus scrofa, UniProt P00761); experiment: trypsin protease activity blockade – biochemical, quenched peptide fluorescence, cherry-pick, selectivity assay for Rce1 protease inhibitor project, dose response (AID 488789)
[12] = target: T6, Mannose-6-phosphate isomerase; experiment: Confirmation of compounds inhibiting phosphomannose isomerase (PMI) via a fluorescence intensity assay using a high concentration of mannose 6-phosphate. [Related pubchem assays (depositor defined):AID1209, AID1220, AID1545, AID1553, AID1620]
[13] = target: Alkaline phosphatase, placental type (Homo sapiens, UniProt P05187); experiment: human placental alkaline phosphatase inhibition – biochemical, luminescence, confirmation (AID 1512); assay type: functional
[14] = target: Potassium voltage-gated channel subfamily KQT member 2 (Rattus norvegicus, UniProt O88943); experiment: potentiation of rat KCNQ2 current – cell-based, retigabine-insensitive compounds, dose response (AID 2654); assay type: functional
cells = assay type: functional
[15] = microbe, parasite or virus in culture; assay type: functional; conditions: Mycobacterium tuberculosis
[16] = target: T7, Kappa-type opioid receptor (Homo sapiens, UniProt P41145); assay type: functional
Beta-galactosidase = Beta-galactosidase (Escherichia coli, UniProt Q8VNN2); assay type: functional
[17] = target: T7, Kappa-type opioid receptor; assay type: functional; remark: listed apart in the source
[18] = THP-1 cell cytotoxicity, dose response, cytotoxicity control for non-replicating M. tuberculosis project (AID 489025); assay type: functional

T7 sequence (P41145 whole entry): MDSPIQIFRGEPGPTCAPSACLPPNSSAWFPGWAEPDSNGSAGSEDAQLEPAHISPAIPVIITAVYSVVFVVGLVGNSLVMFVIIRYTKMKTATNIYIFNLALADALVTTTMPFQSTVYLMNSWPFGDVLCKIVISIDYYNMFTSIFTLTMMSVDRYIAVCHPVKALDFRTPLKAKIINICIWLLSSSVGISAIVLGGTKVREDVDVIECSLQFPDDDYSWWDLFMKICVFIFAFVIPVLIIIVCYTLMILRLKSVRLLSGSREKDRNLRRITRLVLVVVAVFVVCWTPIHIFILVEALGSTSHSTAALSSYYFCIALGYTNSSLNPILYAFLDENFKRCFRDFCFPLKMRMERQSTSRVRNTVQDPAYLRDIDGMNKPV
Chain of Glutathione S-transferase omega-1 (P78417 whole entry): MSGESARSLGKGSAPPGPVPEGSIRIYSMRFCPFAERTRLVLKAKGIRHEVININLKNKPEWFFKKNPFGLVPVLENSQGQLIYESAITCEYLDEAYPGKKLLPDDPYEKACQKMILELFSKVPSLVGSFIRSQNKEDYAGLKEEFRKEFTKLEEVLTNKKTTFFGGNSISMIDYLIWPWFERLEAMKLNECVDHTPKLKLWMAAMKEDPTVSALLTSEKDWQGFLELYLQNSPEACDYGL
Chain of Beta-galactosidase (Q8VNN2 whole entry): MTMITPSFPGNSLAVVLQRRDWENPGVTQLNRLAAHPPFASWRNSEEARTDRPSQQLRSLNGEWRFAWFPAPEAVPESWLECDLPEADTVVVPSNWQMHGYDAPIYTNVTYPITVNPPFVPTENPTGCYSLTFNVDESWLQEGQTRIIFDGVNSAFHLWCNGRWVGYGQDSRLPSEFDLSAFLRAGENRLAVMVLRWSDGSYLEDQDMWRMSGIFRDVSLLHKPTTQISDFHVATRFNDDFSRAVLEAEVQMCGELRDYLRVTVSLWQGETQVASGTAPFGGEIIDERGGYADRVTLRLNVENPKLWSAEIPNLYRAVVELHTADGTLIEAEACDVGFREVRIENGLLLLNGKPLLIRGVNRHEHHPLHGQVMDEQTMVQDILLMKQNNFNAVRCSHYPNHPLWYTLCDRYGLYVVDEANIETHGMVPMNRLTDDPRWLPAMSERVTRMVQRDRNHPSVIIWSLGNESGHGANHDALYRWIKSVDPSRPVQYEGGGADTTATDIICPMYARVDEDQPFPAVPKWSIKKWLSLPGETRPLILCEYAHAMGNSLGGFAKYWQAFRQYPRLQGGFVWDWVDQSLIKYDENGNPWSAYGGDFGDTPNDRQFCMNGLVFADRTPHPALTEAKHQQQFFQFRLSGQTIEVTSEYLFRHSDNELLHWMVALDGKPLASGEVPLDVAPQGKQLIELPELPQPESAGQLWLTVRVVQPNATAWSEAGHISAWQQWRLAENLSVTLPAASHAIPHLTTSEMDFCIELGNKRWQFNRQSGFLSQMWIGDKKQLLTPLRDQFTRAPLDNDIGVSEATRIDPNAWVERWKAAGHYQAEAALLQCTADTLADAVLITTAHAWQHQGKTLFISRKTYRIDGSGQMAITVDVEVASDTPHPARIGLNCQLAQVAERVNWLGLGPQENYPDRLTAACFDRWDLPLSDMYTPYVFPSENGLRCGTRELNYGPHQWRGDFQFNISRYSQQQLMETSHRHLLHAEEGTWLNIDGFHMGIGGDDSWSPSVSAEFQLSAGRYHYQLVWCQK
Chain of Trypsin (P00761 whole entry): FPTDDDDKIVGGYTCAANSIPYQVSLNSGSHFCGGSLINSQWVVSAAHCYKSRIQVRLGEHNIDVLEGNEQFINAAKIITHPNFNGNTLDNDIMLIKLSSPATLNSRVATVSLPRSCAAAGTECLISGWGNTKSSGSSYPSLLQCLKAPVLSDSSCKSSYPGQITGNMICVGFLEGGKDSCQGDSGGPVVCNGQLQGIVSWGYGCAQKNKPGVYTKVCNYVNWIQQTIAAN
Chain of Alkaline phosphatase, placental type (P05187 whole entry): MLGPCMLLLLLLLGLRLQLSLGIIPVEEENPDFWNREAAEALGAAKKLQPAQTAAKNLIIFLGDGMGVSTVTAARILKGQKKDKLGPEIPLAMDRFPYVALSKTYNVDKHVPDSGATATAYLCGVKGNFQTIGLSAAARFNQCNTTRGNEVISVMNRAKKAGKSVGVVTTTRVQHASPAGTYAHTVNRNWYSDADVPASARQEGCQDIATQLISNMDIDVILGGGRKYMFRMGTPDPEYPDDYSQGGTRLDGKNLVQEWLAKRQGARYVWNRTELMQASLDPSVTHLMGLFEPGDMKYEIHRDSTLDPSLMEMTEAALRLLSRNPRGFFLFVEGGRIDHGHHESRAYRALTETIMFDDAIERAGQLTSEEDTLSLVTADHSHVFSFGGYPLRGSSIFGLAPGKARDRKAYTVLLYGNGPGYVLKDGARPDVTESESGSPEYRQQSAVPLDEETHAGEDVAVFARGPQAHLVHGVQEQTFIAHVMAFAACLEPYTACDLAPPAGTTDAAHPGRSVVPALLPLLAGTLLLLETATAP
Chain of Melanin-concentrating hormone receptor 1 (Q99705 whole entry): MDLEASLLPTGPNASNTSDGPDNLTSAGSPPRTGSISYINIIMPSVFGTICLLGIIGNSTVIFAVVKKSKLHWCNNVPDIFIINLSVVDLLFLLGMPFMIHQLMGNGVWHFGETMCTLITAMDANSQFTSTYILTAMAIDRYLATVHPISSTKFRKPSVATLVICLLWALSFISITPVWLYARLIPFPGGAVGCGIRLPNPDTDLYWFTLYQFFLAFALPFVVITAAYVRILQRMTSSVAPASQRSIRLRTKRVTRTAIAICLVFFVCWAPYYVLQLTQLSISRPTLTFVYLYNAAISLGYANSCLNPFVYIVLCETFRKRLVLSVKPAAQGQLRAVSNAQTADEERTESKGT
Chain of Caspase-7 (P55210 24-198 limits assumed): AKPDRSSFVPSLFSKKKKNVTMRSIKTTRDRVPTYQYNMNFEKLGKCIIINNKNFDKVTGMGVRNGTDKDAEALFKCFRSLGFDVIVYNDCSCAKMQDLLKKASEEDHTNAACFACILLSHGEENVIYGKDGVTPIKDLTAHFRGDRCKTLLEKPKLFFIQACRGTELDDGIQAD
Chain of Caspase-7 (P55210 207-303 limits assumed): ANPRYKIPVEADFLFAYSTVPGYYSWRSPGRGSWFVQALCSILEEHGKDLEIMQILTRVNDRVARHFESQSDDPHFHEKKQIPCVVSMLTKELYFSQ
Chain of Potassium voltage-gated channel subfamily KQT member 2 (O88943 whole entry): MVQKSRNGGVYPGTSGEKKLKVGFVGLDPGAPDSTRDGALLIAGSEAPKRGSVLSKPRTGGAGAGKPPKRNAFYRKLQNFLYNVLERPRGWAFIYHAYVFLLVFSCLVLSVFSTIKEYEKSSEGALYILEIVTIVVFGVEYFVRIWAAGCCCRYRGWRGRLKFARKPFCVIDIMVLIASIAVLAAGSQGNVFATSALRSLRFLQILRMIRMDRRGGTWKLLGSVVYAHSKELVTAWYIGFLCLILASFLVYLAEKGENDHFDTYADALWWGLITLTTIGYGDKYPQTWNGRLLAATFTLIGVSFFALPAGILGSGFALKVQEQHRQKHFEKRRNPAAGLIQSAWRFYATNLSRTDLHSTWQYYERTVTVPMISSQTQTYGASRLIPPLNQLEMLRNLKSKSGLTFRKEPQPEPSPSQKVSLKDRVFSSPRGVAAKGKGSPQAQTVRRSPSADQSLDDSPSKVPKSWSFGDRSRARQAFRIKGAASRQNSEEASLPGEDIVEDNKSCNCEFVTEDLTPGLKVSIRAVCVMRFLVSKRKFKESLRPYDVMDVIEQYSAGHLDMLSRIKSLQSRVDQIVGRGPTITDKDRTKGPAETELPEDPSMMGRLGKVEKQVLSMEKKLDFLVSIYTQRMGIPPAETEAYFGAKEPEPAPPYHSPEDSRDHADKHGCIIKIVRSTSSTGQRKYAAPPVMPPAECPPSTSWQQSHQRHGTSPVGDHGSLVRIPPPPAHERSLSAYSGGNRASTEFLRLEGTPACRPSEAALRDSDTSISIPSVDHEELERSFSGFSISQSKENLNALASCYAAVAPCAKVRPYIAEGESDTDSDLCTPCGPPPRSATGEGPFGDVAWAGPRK
Chain of Phosphoethanolamine/phosphocholine phosphatase (Q8TCT1 whole entry): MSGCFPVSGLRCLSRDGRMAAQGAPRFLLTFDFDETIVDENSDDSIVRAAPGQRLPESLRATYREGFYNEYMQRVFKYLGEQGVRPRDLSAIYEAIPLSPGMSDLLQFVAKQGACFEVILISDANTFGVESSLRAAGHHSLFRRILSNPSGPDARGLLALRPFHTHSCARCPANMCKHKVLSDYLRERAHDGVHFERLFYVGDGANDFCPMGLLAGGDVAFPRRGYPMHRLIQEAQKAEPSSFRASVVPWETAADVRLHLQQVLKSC
Chain of Phosphomannomutase 2 (O15305 whole entry): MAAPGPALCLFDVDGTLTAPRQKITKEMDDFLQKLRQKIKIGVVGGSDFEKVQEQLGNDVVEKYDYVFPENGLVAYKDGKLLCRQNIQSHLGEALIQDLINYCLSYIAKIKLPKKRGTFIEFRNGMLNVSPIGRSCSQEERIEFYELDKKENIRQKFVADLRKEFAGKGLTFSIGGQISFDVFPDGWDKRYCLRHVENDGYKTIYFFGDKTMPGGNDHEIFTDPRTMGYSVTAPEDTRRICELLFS

COc1ccc(-c2sc3ccc(OC)cc3c2C#Cc2ccccn2)cc1
AC50 [1]: 3 µM (active)
EC50 (Caspase-3): > 85.2 µM (inactive)
EC50 (Caspase-7): > 85.2 µM (inactive)

CNc1c2cccc(C)c2nc2c(C(=O)NCCN(C)C)cccc12
AC50 (ORF 73): 5.35 µM (active)
IC50 [2]: 34.6 µM (active)
IC50 [3]: > 67.5 µM (inactive)
EC50 [4]: > 67.5 µM (inactive)
AC50 (HeLa): 1.01 µM (active)
IC50 [5]: > 150 µM (active)
CC50 [6]: 3.39 µM (active)

COc1ccc(Oc2c(Cl)cnn(-c3ccc(I)cc3)c2=O)cc1
IC50 [7]: 1 µM (active)
IC50 [8]: 4.7 µM (active)

O=C(NC1CCCCC1)C(c1cccnc1)N(C(=O)CCl)c1ccc(Cl)c(Cl)c1 (configuration not stated)
IC50 [9]: 0.045 µM (active)

O=c1c2ccc(F)cc2sn1-c1cccc(Cl)c1Cl
IC50 (Phosphomannomutase 2): > 100 µM (inactive)
IC50 [10]: > 50 µM (inactive)
IC50 [11]: 0.359 µM (active)

Cc1ccc(C(=O)N2N=C(c3ccccc3O)CC2c2ccccc2)cc1 (configuration not stated)
AC50 (Trypsin): 67.6 µM (active)

C=CCN1C(=O)/C(=N\Nc2ccccc2O)c2ccccc21
IC50 [10]: > 100 µM (inactive)
IC50 [12]: > 100 µM (inactive)
IC50 [13]: > 100 µM (inactive)

O=C(Nc1ccc(Br)nc1)Nc1cccc(F)c1
EC50 [14]: 4.04 µM (active)

CC(C)(C)NC(=O)C(=O)NNC(=O)c1ccc(C(C)(C)C)cc1
IC50 (cells): 19.4 µM (active)
CC50 [15]: > 40 µM (active)
IC50 [16]: > 32 µM
EC50 (Beta-galactosidase): > 31.5 µM (inactive)
IC50 [17]: > 31.5 µM (inactive)
CC50 [18]: > 40 µM (active)
